# What was measured:
# [1] = test system: Pseudomonas aeruginosa biofilm; assay: Sequential application of CDA then biocide on 3-day-old biofilm grown in CDC biofilm reactor (single tube method); assay type: cell-based; details: biocide 10 ppm
# [2] = test system: P. aeruginosa strain PA14 biofilm; assay: Simultaneous application of CDA and biocide on 3-day biofilm in 24-well plates; assay type: cell-based, Pseudomonas aeruginosa; details: 15 ppm DBNPA, 310 nM CDA, two hours (FIG. 3)
# Protocol: (§1) The effect of bromine-containing biocide in combination with CDA on pre-grown biofilms was studied. The experiment was carried out utilizing (A) the P. aeruginosa strain PA14 and (B) mixed bacterial species derived from environmental and industrial water.
# (§2) Bacteria were cultured in EPRI medium supplemented with Hutners mineral solution and glucose (0.2%). Microorganisms were incubated at room temperature (22° C.), under aerobic conditions with shaking. The biofilm culture system used included polystyrene 24-well plates that were treated with protein to enhance attachment and growth of biofilm bacteria according to the method described in Davies D G, Marques C N, 2009, J Bacteriol 191:1393-1403.
# (§3) Following inoculation with 1 mL bacterial culture, spent medium was removed and replaced with sterile medium every 24 hours for 3 days, and a final medium exchange was performed 3 hours prior to treatment. Additionally, the medium was exchanged prior to treatment in order to remove planktonic bacteria. Treatments consisted of 100 μL of 310 nM CDA and bromine-containing biocide, or bromine-containing biocide alone at concentrations used in commercial water treatment, water was used as a carrier, for a contact time determined by activity of each biocide and ranging from 1 hour to 24 hours, as detailed below for each of the tested biocides.
# Following the treatment, the medium from each well was removed by pipet and 1 mL of DE neutralization broth was added in order to stop the treatment. Bacteria from each well were then removed by scraping the biofilm formed in the well with a sterile cell-scraper, and 1.0 mL of culture was transferred to chilled (4° C.) 9.0 mL DE neutralizing broth and homogenized for 15 seconds at 40,000 rpm on ice. Further dilutions were performed prior to enumeration (further neutralizing biocide activity). Recovery of bacteria were tested at different dilutions of biocide in water, in LB medium with thioglycolate and in DE neutralizing broth to ensure the active agent was properly neutralized. Viable bacteria were enumerated via the drop plate method. Each biocide was evaluated using 24-well plates with 8 wells each for the control cultures (Ctl) inoculated with P. aeruginosa but not treated, a CDA minus test (−CDA) treated with bromine-containing biocide only, and a CDA plus test treated with bromine-containing biocide and CDA (+CDA).
# [3] = test system: undefined mixed microbial biofilm cultures derived from an environmental water source; assay: Simultaneous CDA and biocide on mixed biofilm from environmental water, 24-well plates; assay type: cell-based; details: 15 ppm DBNPA, 310 nM CDA, two hours (FIG. 5A)
# Protocol: as §1, §2
# as §3, with “biocides. […]” for “biocides.”
# [4] = test system: biofilm culture derived from fresh-water mixed microbial community obtained from cooling tower water; assay: Simultaneous CDA and biocide on mixed biofilm from cooling tower water, 24-well plates; assay type: cell-based; details: 15 ppm DBNPA, 310 nM CDA, two hours (FIG. 5B)
# Protocol: as §1, §2
# as §3, with “biocides. […]” for “biocides.”
# [5] = Storage stability of biocide/CDA liquid concentrates (HPLC); assay type: physicochemical; details: Example 6 concentrate C103-PEG200-H2O-CDA-BHT 20:50:30:0.1:0.1; 25° C., two months
# Protocol: 22 mg of cis-2-decenoic acid (CiVentiChem, 96.72% purity) were charged into 50 ml flask, equipped with a stirrer 3.99 gr of C-103 (ICL, batch 640160147) were added, followed by 9.97 gr of PEG200 (Merck 8.07483.5000 Lot 56904983 451), 5.95 gr of DI water and 22 mg of BHT (Aldrich B1378-100G, BCBH9491V). The obtained solution was stirred till complete clarification; sonication at +30° C. is recommended if some particles are observed. Clear colorless solution of a total […] and 20:50:30:0.1:0.1 weight ratio of C103-PEG200-H2O-CDA-BHT was obtained.
# The solution was tested to determine the stability of the biocide and CDA and under storage at 25° C. over a two-month period.
# 47.6 mg or cis-2-decenoic acid (CiVentiChem, 96.72% purity) were charged into 50 ml flask, equipped with a stirrer. 9.01 gr of Bronopol (ICL, batch 17101607) were added, followed by 18.03 gr of propylene glycol (Biolab 16200201 Lot 1007861), 3.0 gr of DI water and 31.2 mg of BHT (Aldrich B1378-100G, BCBH9491V). After stirring for several minutes, undissolved traces of BHT were filtered through filtering paper for BHT particle removal. Clear colorless solution of a total 30 gr and 30:60:10:0.158:0.1 weight ratio of Bronopol-PG-H2O-CDA-BHT was obtained.
# [6] = test system: P. aeruginosa (ATCC 700888) massive biofilm; assay: Sequential CDA then biocide on massive biofilm grown in drip flow tubes (modified ASTM 2647-13); assay type: cell-based, Pseudomonas aeruginosa; details: 30.0 ppm DBNPA 3 h after 310 nM CDA 2 h (FIG. 18)
# Description: The effect of the sequential addition of CDA and bromine-containing biocide was studied using P. aeruginosa biofilm grown in the drip flow tubes (according to a modification of standard ASTM 2647-13, standard Test Method for Quantification of Pseudomonas aeruginosa Biofilm Grown Using Drip Flow Biofilm Reactor with Low Shear and Continuous Flow). This method produces massive biofilm resulting with harsh conditions that are very difficult to treat. The addition of the bromine-containing biocide took place 120 min after the addition of 310 nM CDA (the biocide that was tested in this study was DBNPA).
# • a) A continuous once-through tube system was configured by using silicone coated latex tubes, connected to a peristaltic pump via additional silicone tubing. • b) The silicone coated latex tubes were inoculated by syringe injection of overnight cultures of P. aeruginosa (ATCC 700888), 5*10^7 CFU/ML in 10% TSB (Tryptic Soy Broth). […]
# The following treatments were conducted: • 1. […] Each dilution was cultured in duplicate (on R2A agar) for colony growth using the pour plating method. • h) The plates were incubated at 36° C. for 17-20 h. • i) The appropriate number of colonies were counted. […]
compound,measurement,setting,value
"N#CC(Br)(Br)C(N)=O [DBNPA, 2,2-dibromo-3-nitrilopropionamide]",Log reduction vs. control: biocide alone,"[1]; 1 h contact time, 3-day-old biofilm",~3 log units
same,Enhancement,[1]; 310 nM CDA combination vs biocide alone,~2 log units
same,Log reduction vs. control: combination of the 310 nM CDA and biocide,[1]; 1 h CDA 310 nM then 1 h biocide,~5 log units
same,enhancement by combined treatment relative to biocide alone,"[1]; text of Example 2, 310 nM commercial CDA (97% by GC)",two
same,biofilm reduction by biocide alone,"[1]; text of Example 2, 1 h",reduces the biofilm
same,effect of biocide and CDA compared with biocide alone,[2],improved effect
same,effect of biocide and CDA compared with biocide alone,[3],improved result
same,effect of biocide and CDA compared with biocide alone,[4],improved result
same,degradation under storage (HPLC),[5],Neither DBNPA nor CDA underwent degradation
same,enhancement of biocidal effect by combined treatment over biocide alone,[6],~2 log orders

# — US12557812B2, “Method and composition for water treatment” (BROMINE COMPOUNDS LTD., priority 2019, dated 2026)
